Source: patent US4861788A, “Antibacterial 1-normon-2-yl-heterocyclic compounds” (Beecham Group plc, priority 1983, dated 1989)
≈ marks a conversion by molar mass, not a printed value. Where two headings read alike, the source gives them in different places.

What was measured:
M. hyopneumoniae JF 435 = test: MIC against Mycoplasma in vitro (Friis broth with agarose); assay type: cell-based; conditions: Mesomycoplasma hyopneumoniae, JF435, 144 h
M. hyopneumoniae Str. 11 = test: as above; assay type: cell-based; conditions: Mesomycoplasma hyopneumoniae
M. hyopneumoniae UCD 1 = test: as above; assay type: cell-based; conditions: Mesomycoplasma hyopneumoniae, UCD1, 144 h
M. hyopneumoniae TAM 6N = test: as above; assay type: cell-based; conditions: Mesomycoplasma hyopneumoniae, TAM6N, 144 h
[1] = test system: M. hyopneumoniae NCTC 101101; test: as above; assay type: cell-based; conditions: Mesomycoplasma hyopneumoniae, NCTC101101, 144 h
M. hyorhinis ATCC 23234 = test: as above; assay type: cell-based; conditions: Mesomycoplasma hyorhinis, ATCC23234, 144 h
M. hyorhinis ATCC 25021 = test: as above; assay type: cell-based; conditions: Mesomycoplasma hyorhinis, ATCC25021, 144 h
[2] = test system: M. hyosynoviae ATCC 25591; test: as above; assay type: cell-based; conditions: 144 h
[3] = test system: M. bovigenitalium ATCC 14173; test: as above; assay type: cell-based; conditions: 144 h
M. dispar NCTC 10125 = test: as above; assay type: cell-based; conditions: 144 h
M. pneumoniae ATCC 15492 = test: as above; assay type: cell-based; conditions: Mycoplasmoides pneumoniae, ATCC15492, 144 h; M. pneumoniae ATCC 15492; 6 days at 37° C; read-out: MIC
Bacillus subtilis 6633 = test: MIC against human bacteria in vitro (nutrient agar, chocolated horse blood); assay type: cell-based; conditions: human; Bacillus subtilis 6633; 18 hours at 37° C; read-out: MIC
Experimental: (§1) The activity of the normonyl derivaties of the Examples against various bacteria which are important in diseases of humans, was assayed in vitro using serial dilutions in nurient agar with 5% chocolated horse blood.

E. coli ESS = test: as above; assay type: cell-based; conditions: Escherichia coli; human; E. coli ESS; 18 hours at 37° C; read-out: MIC
Experimental: as §1

Staph. aureus W2827 = test: as above; assay type: cell-based; conditions: Staphylococcus aureus; human; Staph. aureus W2827; 18 hours at 37° C; read-out: MIC
Experimental: as §1

Strep. faecalis I = test: as above; assay type: cell-based; conditions: Enterococcus faecalis; human; Strep. faecalis I; 18 hours at 37° C; read-out: MIC
Experimental: as §1

E. coli NCTC 10418 = test: MIC against veterinary bacteria in vitro (Diagnostic Sensitivity Test Agar); conditions: Escherichia coli, NCTC10418, 18 h
Experimental: (§2) The activity of the normonyl derivatives of the Examples against various veterinarily important bacteria, was assayed in vitro using two-fold serial dilutions in Diagnostic Sensitivity Test Agar inoculated with 10^4 organisms.

E. coli E1 = test: as above; conditions: Escherichia coli, E1, 18 h
Experimental: as §2

Bord. bronchiseptica B08 = test: as above; conditions: Bordetella bronchiseptica, B08, 18 h
Experimental: as §2

Bord. bronchiseptica B09 = test: as above; conditions: Bordetella bronchiseptica, B09, 18 h
Experimental: as §2

Past. multocida PA1 = test: as above; conditions: Pasteurella multocida, PA1, 18 h
Experimental: as §2

Past. multocida PA2 = test: as above; conditions: Pasteurella multocida, PA2, 18 h
Experimental: as §2

Past. haemolytica PA5 = test: as above; conditions: Mannheimia haemolytica, PA5, 18 h
Experimental: as §2

[4] = test system: Staph. aureus B4 (pen. resistant); test: as above; conditions: Staphylococcus aureus, 18 h
Experimental: as §2

[5] = test system: Staph. aureus 152 (pen. sens); test: as above; conditions: Staphylococcus aureus, 18 h
Experimental: as §2

Staph. aureus Oxford = test: as above; conditions: Staphylococcus aureus, 18 h
Experimental: as §2

[6] = test system: Strep. suis (group D) SPS11; test: as above; conditions: Streptococcus suis, 18 h
Experimental: as §2

Strep. uberis SPU1 = test: as above; conditions: Streptococcus uberis, SPU1, 18 h
Experimental: as §2

Strep. dysgalactiae SPD1 = test: as above; conditions: Streptococcus dysgalactiae, SPD1, 18 h
Experimental: as §2

Strep. agalactiae SPA1 = test: as above; conditions: Streptococcus agalactiae, SPA1, 18 h
Experimental: as §2

[7] = M. hyopneumoniae JF 435, 6 days at 37° C, read-out: MIC
[8] = M. hyopneumoniae TAM 6N, 6 days at 37° C, read-out: MIC
[9] = M. hyorhinis ATCC 23234, 6 days at 37° C, read-out: MIC
[10] = M. hyorhinis ATCC 25021, 6 days at 37° C, read-out: MIC
[11] = M. hyosynoviae ATCC 25591, 6 days at 37° C, read-out: MIC
[12] = M. bovigenitalium ATCC 14173, 6 days at 37° C, read-out: MIC

SMILES	MIC (M. hyopneumoniae JF 435; [7])	MIC (M. hyopneumoniae TAM 6N; [8])	MIC (M. pneumoniae ATCC 15492)	MIC (Bacillus subtilis 6633)	MIC (E. coli ESS)	MIC (Staph. aureus W2827)	MIC (Strep. faecalis I)	MIC (E. coli NCTC 10418)	MIC (E. coli E1)	MIC (Bord. bronchiseptica B08)	MIC (Bord. bronchiseptica B09)	MIC (Past. multocida PA1)	MIC (Past. haemolytica PA5)	MIC [4]	MIC [5]	MIC (Staph. aureus Oxford)	MIC [6]	MIC (Strep. uberis SPU1)	MIC (Strep. dysgalactiae SPD1)	MIC (Strep. agalactiae SPA1)	other results
CC(=Cc1nnc(-c2ccco2)o1)CC1OCC(CC2OC2C(C)C(C)O)C(O)C1O (centres unmarked) [Example 8, 2-(2-Furyl)-5-(1-normon-2-yl)-1,3,4-oxadiazole A]	10 µg/mL (≈ 23 µM)	10 µg/mL (≈ 23 µM)	> 10 µg/mL	4 µg/mL (≈ 9.21 µM)	8 µg/mL (≈ 18.4 µM)	32 µg/mL (≈ 73.6 µM)	> 128 µg/mL	> 80 µg/mL	> 80 µg/mL	> 80 µg/mL	80 µg/mL (≈ 184 µM)	1.25 µg/mL (≈ 2.88 µM)	40 µg/mL (≈ 92.1 µM)	20 µg/mL (≈ 46 µM)	40 µg/mL (≈ 92.1 µM)	80 µg/mL (≈ 184 µM)	> 80 µg/mL	10 µg/mL (≈ 23 µM)	40 µg/mL (≈ 92.1 µM)	> 80 µg/mL	MIC (M. hyopneumoniae Str. 11; 144 h, M. hyopneumoniae Str. 11, 6 days at 37° C, read-out: MIC): 5 µg/mL (≈ 11.5 µM); MIC (M. hyopneumoniae UCD 1; M. hyopneumoniae UCD 1, 6 days at 37° C, read-out: MIC): 5 µg/mL (≈ 11.5 µM); MIC ([1]; M. hyopneumoniae NCTC 101101, 6 days at 37° C, read-out: MIC): 10 µg/mL (≈ 23 µM); MIC (M. hyorhinis ATCC 23234; [9]): 2.5 µg/mL (≈ 5.75 µM); MIC (M. hyorhinis ATCC 25021; [10]): 2.5 µg/mL (≈ 5.75 µM); MIC [2, 11]: 2.5 µg/mL (≈ 5.75 µM); MIC [3, 12]: 0.5 µg/mL (≈ 1.15 µM); MIC (M. dispar NCTC 10125; M. dispar NCTC 10125, 6 days at 37° C, read-out: MIC): 1 µg/mL (≈ 2.3 µM); MIC (Past. multocida PA2): 0.625 µg/mL (≈ 1.44 µM)
CC(=Cc1nc(-c2ccc([N+](=O)[O-])cc2)no1)CC1OCC(CC2OC2C(C)C(C)O)C(O)C1O (centres unmarked) [Example 16, 5-(1-Normon-2-yl)-3-(4-nitrophenyl)-1,2,4-oxadiazole]	1 µg/mL (≈ 2.04 µM)	1 µg/mL (≈ 2.04 µM)	> 10 µg/mL	16 µg/mL (≈ 32.7 µM)	8 µg/mL (≈ 16.3 µM)	16 µg/mL (≈ 32.7 µM)	> 64 µg/mL	> 80 µg/mL	> 80 µg/mL	80 µg/mL (≈ 163 µM)	10 µg/mL (≈ 20.4 µM)	5 µg/mL (≈ 10.2 µM)	20 µg/mL (≈ 40.9 µM)	1.25 µg/mL (≈ 2.55 µM)	2.5 µg/mL (≈ 5.11 µM)	2.5 µg/mL (≈ 5.11 µM)	80 µg/mL (≈ 163 µM)	2.5 µg/mL (≈ 5.11 µM)	10 µg/mL (≈ 20.4 µM)	5 µg/mL (≈ 10.2 µM)	MIC (M. hyopneumoniae Str. 11; STR.11, 144 h): 0.25 µg/mL (≈ 0.511 µM); MIC (M. hyopneumoniae UCD 1): 0.5 µg/mL (≈ 1.02 µM); MIC [1]: 1 µg/mL (≈ 2.04 µM); MIC (M. hyorhinis ATCC 23234; [9]): 0.25 µg/mL (≈ 0.511 µM); MIC (M. hyorhinis ATCC 25021; [10]): 0.25 µg/mL (≈ 0.511 µM); MIC [2, 11]: 5 µg/mL (≈ 10.2 µM); MIC [3, 12]: 0.5 µg/mL (≈ 1.02 µM); MIC (M. dispar NCTC 10125): 0.1 µg/mL (≈ 0.204 µM)
CC(=Cc1nnc(-c2ccc(N(C)C)cc2)o1)CC1OCC(CC2OC2C(C)C(C)O)C(O)C1O (centres unmarked) [Example 10, 2-(4-Dimethylaminophenyl)-5-(1-normon-2-yl)-1,3,4-oxadiazole A]	–	–	10 µg/mL (≈ 20.5 µM)	2 µg/mL (≈ 4.1 µM)	2 µg/mL (≈ 4.1 µM)	4 µg/mL (≈ 8.2 µM)	> 128 µg/mL	> 80 µg/mL	> 80 µg/mL	> 80 µg/mL	> 80 µg/mL	40 µg/mL (≈ 82 µM)	40 µg/mL (≈ 82 µM)	5 µg/mL (≈ 10.3 µM)	5 µg/mL (≈ 10.3 µM)	20 µg/mL (≈ 41 µM)	> 80 µg/mL	20 µg/mL (≈ 41 µM)	80 µg/mL (≈ 164 µM)	> 80 µg/mL	MIC (M. hyopneumoniae JF 435): 1 µg/mL (≈ 2.05 µM); MIC (M. hyopneumoniae Str. 11; STR.11, 144 h): 1 µg/mL (≈ 2.05 µM); MIC (M. hyopneumoniae UCD 1): 2.5 µg/mL (≈ 5.13 µM); MIC (M. hyopneumoniae TAM 6N): 5 µg/mL (≈ 10.3 µM); MIC [1]: 5 µg/mL (≈ 10.3 µM); MIC (M. hyorhinis ATCC 23234): 1 µg/mL (≈ 2.05 µM); MIC (M. hyorhinis ATCC 25021): 1 µg/mL (≈ 2.05 µM); MIC [2]: 2.5 µg/mL (≈ 5.13 µM); MIC [3]: 1 µg/mL (≈ 2.05 µM); MIC (M. dispar NCTC 10125): 0.5 µg/mL (≈ 1.03 µM); MIC (Past. multocida PA2): 5 µg/mL (≈ 10.3 µM)
